Measured values from US12370235B2, “Synthetic, non-natural antimicrobial peptides inspired by Staphylococcus auricularis delta toxin” (University of Saskatchewan, priority 2021, dated 2025).
Ends that are not written are not given here.

What was measured:
[1] = system: C. albicans Y537; experiment: MIC, YPD broth; type: cell-based, Candida albicans; conditions: Table 8
[2] = system: C. albicans MYA-2876; experiment: MIC, YPD broth; type: cell-based, Candida albicans; conditions: Table 8
Procedure, shortened: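 Yeast cells were diluted in YPD broth, and 180 μl aliquots were mixed with 20 μl of peptide from 2-fold serial dilutions in flat-bottom 96-well microtitre plates. Wells receiving 20 μl sterile water served as controls. After standing incubation overnight at 37° C, the MIC was taken as the lowest peptide concentration with no visible microbial growth.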

[3] = system: S. aureus ATCC BAA-1683 (MRSA SCCmec type IV); experiment: MIC, broth dilution; type: cell-based, Staphylococcus aureus; conditions: Table 5; STIP3 variants, highest concentration 100 μg/mL
Procedure, shortened: (§1)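 Peptides of 95% purity tested as 2-fold dilution series against bacteria diluted to OD 6×10^−4 in cation-adjusted Mueller Hinton broth. Standing cultures incubated overnight at 37° C; MIC is the lowest concentration with no visible growth.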

[4] = system: S. aureus ATCC BAA-41 (MRSA SCCmec type II); experiment: MIC, broth dilution; type: cell-based, Staphylococcus aureus; conditions: Table 5; STIP3 variants, highest concentration 100 μg/mL
Procedure, shortened: as §1

[5] = system: S. aureus ATCC 33592 (MRSA SCCmec type III); experiment: MIC, broth dilution; type: cell-based, Staphylococcus aureus; conditions: Table 5; STIP3 variants, highest concentration 100 μg/mL
Procedure, shortened: as §1

[6] = system: S. aureus ATCC BAA-2313 (MRSA SCCmec type XI); experiment: MIC, broth dilution; type: cell-based, Staphylococcus aureus; conditions: Table 5; STIP3 variants, highest concentration 100 μg/mL
Procedure, shortened: as §1

[7] = system: S. aureus ATCC 29213; experiment: MIC, broth dilution; type: cell-based, Staphylococcus aureus; conditions: Table 5; STIP3 variants, highest concentration 100 μg/mL
Procedure, shortened: as §1

[8] = system: S. aureus ATCC BAA-44 (MRSA SCCmec type I); experiment: MIC, broth dilution; type: cell-based, Staphylococcus aureus; conditions: Table 5; STIP3 variants, highest concentration 100 μg/mL
Procedure, shortened: as §1

[9] = system: S. aureus ATCC BAA-42 (MRSA SCCmec type VI); experiment: MIC, broth dilution; type: cell-based, Staphylococcus aureus; conditions: Table 5; STIP3 variants, highest concentration 100 μg/mL
Procedure, shortened: as §1

[10] = system: S. aureus ATCC BAA-2094 (MRSA SCCmec type V); experiment: MIC, broth dilution; type: cell-based, Staphylococcus aureus; conditions: Table 5; STIP3 variants, highest concentration 100 μg/mL
Procedure, shortened: as §1

[11] = system: Mannheimia haemolytica ATCC 33393; experiment: MIC, broth dilution; type: cell-based; conditions: Table 11; highest concentration 25 μg/mL
Procedure, shortened: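 Read-out is the lowest peptide concentration showing no growth after an overnight standing culture at 37 °C. Two-fold serial dilutions of 95%-pure peptide were tested against M. haemolytica ATCC 33393 at OD 6×10^−4 in cation-adjusted MH broth.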

[12] = system: S. aureus / MRSA (ATCC MP-2 panel); type: cell-based, Staphylococcus aureus; conditions: MIC screen, in words
Method: In order to begin to characterize STIP3-1 and potential sites amenable to modification, an alanine scanning experiment was performed. A total of 16 peptides with single alanine substitutions were assessed to inform on the importance of individual residues to antimicrobial activity. […] Next a series of thirty STIP3-1 variants were designed, guided by the aforementioned alanine scan and a previous report that the central α-helical core of the S. aureus δ-toxin could be converted into AMP through the inclusion of additional lysine residues^39. The collection included ten members with single substitutions relative to STIP3-1 and others that incorporated a number of changes that were designed to increase overall and local cationic charge as well as hydrophobic character (Table 5). Each of the STIPs was screened, including STIP3-1 to STIP-31, for antibiotic activity against a methicillin-sensitive S. aureus test organism and a panel of 7 MRSA strains defined by distinct SCCmec genotypes (FIG. 2; ATCC MP-2).
Determination of minimum inhibitory concentrations. The MICs were measured for bioactive peptides identified from the initial screen. For bacterial studies, cation-adjusted Mueller Hinton (MH) broth was used as the growth medium whereas YPD was used for C. albicans. Bacterial cultures were diluted to a OD value of 6×10^−4 in MH broth and a 180 μl volume was mixed with 20 μl of peptide arrayed as 2-fold dilution series in a 96-well plate. For the positive control, 20 μl of sterile water was used. Plates were incubated as standing cultures overnight at 37° C. The lowest peptide concentration that resulted no observed microbial growth after an overnight treatment was defined as the MIC.

[13] = system: Candida duobushaemulonii AR 394; experiment: MIC, YPD broth, CDC and FDA AR Candida isolate panel; type: cell-based; conditions: Table 9 below the line: only 200 or 100 μg/mL tested; values reported as 100 are ≤100 μg/mL
Procedure, shortened: (§2)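 Broth microdilution in YPD; yeast diluted to optical density […] and mixed with 2-fold serial dilutions of peptide (95% purity), water control. Standing cultures incubated overnight at 37 °C.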

[14] = system: Candida duobushaemulonii AR 391; experiment: as above; type: cell-based; conditions: Table 9 below the line: only 200 or 100 μg/mL tested; values reported as 100 are ≤100 μg/mL
Procedure, shortened: as §2

[15] = system: Saccharomyces cerevisiae AR 399; experiment: as above; type: cell-based; conditions: Table 9 below the line: only 200 or 100 μg/mL tested; values reported as 100 are ≤100 μg/mL
Procedure, shortened: as §2

[16] = system: Kodamae ohmeri AR 396; experiment: as above; type: cell-based; conditions: Table 9 below the line: only 200 or 100 μg/mL tested; values reported as 100 are ≤100 μg/mL
Procedure, shortened: as §2

[17] = system: Candida duobushaemulonii AR 392; experiment: as above; type: cell-based; conditions: Table 9 below the line: only 200 or 100 μg/mL tested; values reported as 100 are ≤100 μg/mL
Procedure, shortened: as §2

[18] = system: Candida haemulonii AR 393; experiment: as above; type: cell-based; conditions: Table 9 below the line: only 200 or 100 μg/mL tested; values reported as 100 are ≤100 μg/mL
Procedure, shortened: as §2

[19] = system: Candida lusitaniae AR 398; experiment: as above; type: cell-based; conditions: Table 9 below the line: only 200 or 100 μg/mL tested; values reported as 100 are ≤100 μg/mL
Procedure, shortened: as §2

[20] = system: Candida krusei AR 397; experiment: as above; type: cell-based; conditions: Table 9 below the line: only 200 or 100 μg/mL tested; values reported as 100 are ≤100 μg/mL
Procedure, shortened: as §2

[21] = system: Candida haemulonii AR 395; experiment: as above; type: cell-based; conditions: Table 9 below the line: only 200 or 100 μg/mL tested; values reported as 100 are ≤100 μg/mL
Procedure, shortened: as §2

[22] = system: Saccharomyces cerevisiae AR 400; experiment: as above; type: cell-based; conditions: Table 9 below the line: only 200 or 100 μg/mL tested; values reported as 100 are ≤100 μg/mL
Procedure, shortened: as §2

Row | Sequence | MIC C. albicans Y537 [1] | MIC C. albicans MYA-2876 [2] | MIC S. aureus ATCC BAA 1683 (IV) [3] | MIC S. aureus ATCC BAA 41 (II) [4] | MIC S. aureus ATCC 33592 (III) [5] | MIC S. aureus ATCC BAA 2313 (XI) [6] | MIC S. aureus ATCC 29213 [7] | MIC S. aureus ATCC BAA 44 (I) [8] | MIC S. aureus ATCC BAA 42 (VI) [9] | MIC S. aureus ATCC BAA 2094 (V) [10] | MIC (μg/mL) M. haemolytica [11] | inhibition of S. aureus [12] | MIC (μg/mL) Candida duobushaemulonii AR 394 [13] | MIC (μg/mL) Candida duobushaemulonii AR 391 [14] | MIC (μg/mL) Saccharomyces cerevisiae AR 399 [15] [µg/mL] | MIC (μg/mL) Kodamae ohmeri AR 396 [16] | MIC (μg/mL) Candida duobushaemulonii AR 392 [17] | MIC (μg/mL) Candida haemulonii AR 393 [18] | MIC (μg/mL) Candida lusitaniae AR 398 [19] [µg/mL] | MIC (μg/mL) Candida krusei AR 397 [20] | further results
1 | TVKFLVKWILKWVAKFA [STIP3-25, TVKFLVKWILKWVAKFA] | 25 µg/mL | 25 µg/mL | > (no inhibition was observed at the highest concentration of peptide tested: 100 μg/mL for the STIP3 variants) | > (no inhibition was observed at the highest concentration of peptide tested: 100 μg/mL for the STIP3 variants) | > (no inhibition was observed at the highest concentration of peptide tested: 100 μg/mL for the STIP3 variants) | > (no inhibition was observed at the highest concentration of peptide tested: 100 μg/mL for the STIP3 variants) | > (no inhibition was observed at the highest concentration of peptide tested: 100 μg/mL for the STIP3 variants) | > (no inhibition was observed at the highest concentration of peptide tested: 100 μg/mL for the STIP3 variants) | > (no inhibition was observed at the highest concentration of peptide tested: 100 μg/mL for the STIP3 variants) | > (no inhibition was observed at the highest concentration of peptide tested: 100 μg/mL for the STIP3 variants) | > (> symbol indicates that no inhibition was observed at the highest concentration of peptide tested: 25 μg/mL) | incapable of inhibiting S. aureus | > (values below the line were determined using two concentrations of peptide 200 or 100 μg/mL) | > (values below the line were determined using two concentrations of peptide 200 or 100 μg/mL) | ≤ 100 | > (values below the line were determined using two concentrations of peptide 200 or 100 μg/mL) | > (values below the line were determined using two concentrations of peptide 200 or 100 μg/mL) | > (values below the line were determined using two concentrations of peptide 200 or 100 μg/mL) | ≤ 100 | > (values below the line were determined using two concentrations of peptide 200 or 100 μg/mL) | MIC (μg/mL) Candida haemulonii AR 395 [21]: > (values below the line were determined using two concentrations of peptide 200 or 100 μg/mL); MIC (μg/mL) Saccharomyces cerevisiae AR 400 [22]: ≤ 100 µg/mL
2 | TVKVLVKWILKVVAKFA [STIP3-26, TVKVLVKWILKVVAKFA] | > (> symbol indicates that no inhibition was observed at the highest concentration of peptide tested: 100 μg/mL) | > (> symbol indicates that no inhibition was observed at the highest concentration of peptide tested: 100 μg/mL) | > (no inhibition was observed at the highest concentration of peptide tested: 100 μg/mL for the STIP3 variants) | > (no inhibition was observed at the highest concentration of peptide tested: 100 μg/mL for the STIP3 variants) | > (no inhibition was observed at the highest concentration of peptide tested: 100 μg/mL for the STIP3 variants) | > (no inhibition was observed at the highest concentration of peptide tested: 100 μg/mL for the STIP3 variants) | > (no inhibition was observed at the highest concentration of peptide tested: 100 μg/mL for the STIP3 variants) | > (no inhibition was observed at the highest concentration of peptide tested: 100 μg/mL for the STIP3 variants) | > (no inhibition was observed at the highest concentration of peptide tested: 100 μg/mL for the STIP3 variants) | > (no inhibition was observed at the highest concentration of peptide tested: 100 μg/mL for the STIP3 variants) | > (> symbol indicates that no inhibition was observed at the highest concentration of peptide tested: 25 μg/mL) | incapable of inhibiting S. aureus | > (values below the line were determined using two concentrations of peptide 200 or 100 μg/mL) | > (values below the line were determined using two concentrations of peptide 200 or 100 μg/mL) | ≤ 100 | > (values below the line were determined using two concentrations of peptide 200 or 100 μg/mL) | > (values below the line were determined using two concentrations of peptide 200 or 100 μg/mL) | > (values below the line were determined using two concentrations of peptide 200 or 100 μg/mL) | ≤ 100 | > (values below the line were determined using two concentrations of peptide 200 or 100 μg/mL) | MIC (μg/mL) Candida haemulonii AR 395 [21]: > (values below the line were determined using two concentrations of peptide 200 or 100 μg/mL); MIC (μg/mL) Saccharomyces cerevisiae AR 400 [22]: ≤ 100 µg/mL
